Measured values taken from patent US6407071B1, “Method and composition for treating malignant cells” (Co-Enzyme Technology Ltd., priority 1998, dated 2002).
Several values for one entry are separate records, joined by “and”; a condition that tells them apart may be missing. Identical values can stand only once.

Assays:
human tumor cells = experiment: Oxidizing agents found toxic to human tumor cells; format: cell-based
[1] = test system: localized malignant melanomas; conditions: cited from earlier work
prostate cancer = experiment: Six month study of P.S.A. levels in prostate cancer patients: glyceraldehyde, Glycosole and the combination; format: in vivo, human; parameters: key to Patient dead (#): # Dead; P.S.A. Levels during 6 month from initiation of treatment, 1 mo. / P.S.A. Levels during 6 month from initiation of treatment, 2 mo. / P.S.A. Levels during 6 month from initiation of treatment, 3 mo. / P.S.A. Levels during 6 month from initiation of treatment, 4 mo. / P.S.A. Levels during 6 month from initiation of treatment, 5 mo. / P.S.A. Levels during 6 month from initiation of treatment, 6 mo.: unit not given here
Protocol: A six month study was conducted comparing the anti-cancer effect of Glycosole (Glyc., the glucuronide of para-methoxy-phenol), glyceraldehyde, and a combination of the two compounds. These compounds were administered to patients suffering from prostate cancer separately and together. All of the patients suffered from bone metastases and no longer responded to conventional hormone therapy. Patients were administered either 3 grams glyceraldehyde per day, 6 grams per day of Glycosole, or a combination of both agents.

cancer cells = experiment: Toxicity to cancer cells in vitro relative to para-methoxy phenol; format: cell-based; conditions: compared with para-methoxy phenol

## N[C@@H](Cc1ccc(O)c(O)c1)C(=O)O [L-3,4-dihydroxyphenylalanine]
Human tumor cells
  Toxicity to human tumor cells: toxic to human tumor cells

## COc1ccc(O)cc1 [4-hydroxyanisole]
Human tumor cells
  Toxicity to human tumor cells: toxic to human tumor cells
[1]; intra-arterial infusion
  Effect on localized malignant melanomas: underwent regression
[1]; intravenous administration
  Therapeutic effect in malignant melanoma: not therapeutically effective

## O=CC(O)CO (stereo not shown) [Glycer Aldehyde, glyceraldehyde]
Prostate cancer; 1 mo., single patients, bone metastases, glyceraldehyde 3 g/day, Glycosole 6 g/day or both
  P.S.A. Levels during 6 month from initiation of treatment, 1 mo.: 760 and 190 and 2250 and 340 and 910 and 150
Prostate cancer; 2 mo., single patients, glyceraldehyde 3 g/day, Glycosole 6 g/day or both
  P.S.A. Levels during 6 month from initiation of treatment, 2 mo.: 680 and 180 and 1100 and 380 and 850 and 90
Prostate cancer; 3 mo., single patients, glyceraldehyde 3 g/day, Glycosole 6 g/day or both
  P.S.A. Levels during 6 month from initiation of treatment, 3 mo.: 600 and 150 and 1000 and 310 and 740 and 80
Prostate cancer; 4 mo., single patients, glyceraldehyde 3 g/day, Glycosole 6 g/day or both
  P.S.A. Levels during 6 month from initiation of treatment, 4 mo.: 580 and 145 and 980 and 280 and 760 and 80
Prostate cancer; 5 mo., single patients, glyceraldehyde 3 g/day, Glycosole 6 g/day or both
  P.S.A. Levels during 6 month from initiation of treatment, 5 mo.: 540 and 140 and 220 and 680 and 64
Prostate cancer; 6 mo., single patients, glyceraldehyde 3 g/day, Glycosole 6 g/day or both
  P.S.A. Levels during 6 month from initiation of treatment, 6 mo.: 420 and 100 and 180 and 360 and 60
Prostate cancer; 10 mo., single patients
  P.S.A. Levels during 6 month from initiation of treatment, 10 mo.: 380 and 480 and 600
Prostate cancer; 11 mo., single patients
  P.S.A. Levels during 6 month from initiation of treatment, 11 mo.: 920 and 700
Prostate cancer; 12 mo., single patients
  P.S.A. Levels during 6 month from initiation of treatment, 12 mo.: 846
Prostate cancer; marked in column 5 mo.
  Patient dead (#): #
Prostate cancer; marked in column 11 mo.
  Patient dead (#): #
Prostate cancer; marked in column 12 mo.
  Patient dead (#): #
Prostate cancer; prostate cancer with bone metastases, 3 grams glyceraldehyde per day, 6 grams per day of Glycosole, or both
  Response of patients to the treatment: None of the patients administered glyceraldehyde alone responded

## NCCc1ccc(O)c(O)c1 [dopamine, 3,4-dihydroxyphenethylanine]
Human tumor cells
  Toxicity to human tumor cells: toxic to human tumor cells

## Oc1cccc(O)c1 [resorcinol]
Human tumor cells
  Toxicity to human tumor cells: toxic to human tumor cells

## Oc1ccc(O)cc1 [hydroquinone]
Human tumor cells
  Toxicity to human tumor cells: toxic to human tumor cells

## COc1ccc(O)c(C(C)(C)C)c1 [butylated hydroxyanisole]
Human tumor cells
  Toxicity to human tumor cells: toxic to human tumor cells

## CCCOc1ccc(O)cc1 [4-propoxy phenol]
Human tumor cells
  Toxicity to human tumor cells: toxic to human tumor cells

## N[C@@H](Cc1ccc(O)cc1)C(=O)O [tyrosine]
Human tumor cells
  Toxicity to human tumor cells: toxic to human tumor cells

## CCC(C)(C)c1ccc(O)cc1 [4-tert-amyl phenol]
Human tumor cells
  Toxicity to human tumor cells: toxic to human tumor cells

## COC(=O)c1cc(O)c(O)c(O)c1 [methyl gallate]
Human tumor cells
  Toxicity to human tumor cells: toxic to human tumor cells

## 4-benzomethoxy phenol
Human tumor cells
  Toxicity to human tumor cells: toxic to human tumor cells

## N[C@@H](Cc1cc(O)c(O)cc1O)C(=O)O [6-hydroxydopa, 3,4,6-trihydroxyphenylalanine]
Human tumor cells
  Toxicity to human tumor cells: toxic to human tumor cells

## CCC(C)(C)c1ccc(O[C@@H]2O[C@H](C(=O)O)[C@@H](O)[C@H](O)[C@H]2O)cc1 [4-tert-amyl phenyl glucuronide]
Cancer cells
  Toxicity to cancer cells in vitro relative to para-methoxy phenol: 5.5 times
